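Test compounds were applied to cells in 96-well plates for 48 hours at 5 doses. Abbreviation: GI50, concentration required for 50% inhibition of growth. TGI is the concentration that stops growth completely.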
Assays:
Assay in all cases: growth of human tumour cells (NCI), 48 h
RPMI-8226 leukemia = tested on: RPMI-8226 leukemia
SNB-19 CNS = tested on: SNB-19 CNS
SK-OV-3 ovarian = tested on: SK-OV-3 ovarian
UACC-257 melanoma = tested on: UACC-257 melanoma
K-562 leukemia = tested on: K-562 leukemia
SF-295 CNS = tested on: SF-295 CNS
MALME-3M melanoma = tested on: MALME-3M melanoma
HCT-116 colon = tested on: HCT-116 colon
UACC-62 melanoma = tested on: UACC-62 melanoma
NCI-H23 lung = tested on: NCI-H23 lung
LOX IMVI melanoma = tested on: LOX IMVI melanoma
HL-60(TB) leukemia = tested on: HL-60(TB) leukemia

Row | SMILES | TGI (RPMI-8226 leukemia) [µM] | TGI (SNB-19 CNS) [µM] | TGI (SK-OV-3 ovarian) [µM] | TGI (UACC-257 melanoma) [µM] | TGI (K-562 leukemia) [µM] | TGI (SF-295 CNS) [µM] | TGI (MALME-3M melanoma) [µM] | TGI (HCT-116 colon) [µM] | TGI (UACC-62 melanoma) [µM] | TGI (NCI-H23 lung) [µM] | TGI (LOX IMVI melanoma) [µM] | TGI (HL-60(TB) leukemia) [µM] | GI50 (SNB-19 CNS) [µM] | GI50 (SK-OV-3 ovarian) [µM] | GI50 (UACC-257 melanoma) [µM] | GI50 (MALME-3M melanoma) [µM]
1 | COc1cccc2c1CCc1sc(CN3CCN(C)CC3)nc1-2 | > 100 | > 100 | > 100 | > 100 | > 100 | > 100 | > 100 | > 100 | 65.7 | > 100 | – | – | – | – | – | –
2 | O=C(NC1CCCCC1)N1CCNC1=S | > 100 | – | > 100 | > 100 | > 100 | > 100 | > 100 | > 100 | – | > 100 | > 100 | > 100 | – | – | – | –
3 | C#CCN(Cc1ccc2nc(-c3ccccc3)c(Cl)nc2c1)c1ccc(Cl)c(Cl)c1 | – | > 100 | > 100 | > 100 | > 100 | > 100 | > 100 | > 100 | > 100 | > 100 | > 100 | > 100 | – | – | – | –
4 | COc1ccc(CNCCN2C(=O)c3ccc4c5c(ccc(c35)C2=O)C(=O)N(CCNCc2ccc(OC)c(OC)c2OC)C4=O)c(OC)c1OC | – | 4.13 | 50 | 0.303 | – | – | 0.297 | – | – | – | – | – | 0.429 | 1.67 | 0.113 | 0.112
5 | Clc1ccc(CCNCCNC2(c3cc4ccccc4s3)CCCCC2)cc1Cl | 4.62 | 3.83 | 2.81 | 3.29 | 4.52 | 3.04 | 3.44 | 3.26 | 3.11 | 3.38 | 3.36 | – | – | – | – | –
6 | C=C1C(O)C2OC(=O)C(=C)C2C(OC(=O)/C(C)=C/C)CC2(C)OC2C2OC12 (stereo unspecified) | 7.72 | > 100 | > 100 | > 100 | – | 50.9 | 29 | > 100 | 48.2 | 35.3 | 29.7 | 7.44 | – | – | – | –
7 | Nc1nc2c(nnn2C2C=C(CO)C(O)C2O)c(=O)[nH]1 (stereo unspecified) | – | > 100 | > 100 | > 100 | > 100 | > 100 | > 100 | > 100 | > 100 | > 100 | > 100 | – | – | – | – | –
8 | CN1C(=O)c2c(c3c4ccccc4n(C)c3c3c2c2ccccc2n3C)C1=O | > 100 | > 100 | > 100 | > 100 | > 100 | > 100 | > 100 | > 100 | > 100 | > 100 | > 100 | – | – | – | – | –
9 | O=C1C2=C(c3ccccc31)C(c1ccc([N+](=O)[O-])cc1)NC(=S)N2 (stereo unspecified) | > 100 | > 100 | > 100 | > 100 | > 100 | > 100 | > 100 | > 100 | > 100 | > 100 | – | > 100 | – | – | – | –
10 | N#Cc1cc([N+](=O)[O-])ccc1NC(=O)C(=O)Nn1c(=S)[nH]c2ccccc2c1=O | > 100 | > 100 | > 100 | > 100 | > 100 | > 100 | > 100 | > 100 | – | > 100 | > 100 | > 100 | – | – | – | –
11 | C[C@]12CC[C@@H]3c4cc(C=O)c(OCc5ccccc5)cc4CC[C@H]3[C@@H]1CCC2OCc1ccccc1 (stereo partly specified) | > 100 | – | > 100 | > 100 | > 100 | > 100 | – | > 100 | > 100 | > 100 | > 100 | > 100 | – | – | – | –
12 | O=C(C#Cc1ccccc1)Nc1ccccc1CC(c1c[nH]c2ccccc12)c1c[nH]c2ccccc12 | 16.8 | > 100 | > 100 | > 100 | 36.5 | 80 | > 100 | – | 22 | 37.1 | 43.6 | – | – | – | – | –
13 | COc1cc2ccnc3c2c(c1OC)N(C)C=C3 | 82.2 | 75.9 | 79.3 | > 100 | 65.5 | 78.3 | – | 37.9 | 80.3 | 47 | 50.4 | – | – | – | – | –
14 | CC(C)c1cccc(C(C)C)c1NC(=O)/C(Cc1nc2ccc(Cl)cc2[nH]c1=O)=N\NC(=O)C[N+](C)(C)C | > 100 | > 100 | > 100 | > 100 | > 100 | > 100 | > 100 | > 100 | > 100 | > 100 | – | > 100 | – | – | – | –
15 | CCCCCCCCC/C=C1/CC(CO)(COC(=O)C2CCCCC2)OC1=O (stereo unspecified) | – | > 100 | > 100 | > 100 | > 100 | > 100 | > 100 | > 100 | > 100 | > 100 | > 100 | – | – | – | – | –
16 | Nc1nc(Cl)cc(OCC2(CO)CCCCC2)n1 | > 100 | > 100 | – | > 100 | – | > 100 | > 100 | > 100 | – | > 100 | > 100 | > 100 | – | – | – | –
17 | Cc1ccc(C2=C(c3ccccc3)C(O)(c3ccccc3)C(c3ccccc3)=C2c2ccc(C)cc2)cc1 | > 100 | > 100 | > 100 | > 100 | > 100 | > 100 | > 100 | > 100 | – | > 100 | – | – | – | – | – | –
18 | CC(NC(=O)C(NC(=O)C(NC(=O)C(F)(F)F)C(C)C)C(C)C)C(=O)Oc1c(Cl)c(Cl)c(Cl)c(Cl)c1Cl (stereo unspecified) | > 100 | > 100 | > 100 | > 100 | > 100 | – | > 100 | > 100 | > 100 | > 100 | > 100 | > 100 | – | – | – | –
19 | CCCC(CCC(=O)O)(CCC(=O)O)[N+](=O)[O-] | > 100 | > 100 | > 100 | > 100 | > 100 | > 100 | > 100 | > 100 | > 100 | > 100 | – | > 100 | – | – | – | –
20 | COC(=O)[C@@]1(Cc2ccc(OC(C)=O)cc2)Cc2cc3ccccc3n2N1 | > 100 | > 100 | > 100 | 52.1 | – | > 100 | > 100 | > 100 | > 100 | > 100 | > 100 | 80.8 | – | – | – | –
